We go through 5 substances from patent publication US7125858B2, “Hyaluronic acid in the treatment of cancer” (Bioniche Life Sciences Inc., priority 1999, dated 2006).

For data set [1], the system named is MCF-7 human breast cancer cells. Kind of data set: MTT cell proliferation, MCF-7. The data set is classed as cell-based. Here is the method: (§1) Cell proliferation was measured using dimethylthiazoldiphenyltetrazolium (MTT) reduction (Mosman et al. J. Immunol. Methods 65:55, 1983). Unless otherwise stated, 100 μl of 5 mg of MTT (Sigma-Aldrich, St. Louis, Mo., USA) dissolved in 1 ml of PBS was added into each well. After 4 h, medium was removed from each well, 1.0 ml of acid-isopropanol (0.04 N HCl in isopropanol) was added and reduced MTT was solubilized by mixing. Absorbency of the reaction product was measured at a wavelength of 570 nm using a multiplate spectrophotometer reader (Elx800 Model, Bio-TEK Instruments Inc., Winooski, Vt., USA).
(§2) Unless stated otherwise 1.0×10^5 cells/ml were seeded in 6-well flat-bottom tissue culture plates and were maintained for 48 h at 37° C. in a 5% CO2 atmosphere.
(§3) PC-3, LNCAP and Du-145 human prostate cancer cells; MCF-7 human breast cancer cells; HT-1080 human fibrosarcoma cancer cells; B16F1 murine melanoma cells; and, UMUC-3, RT-4, HT-1376 and T-24 human bladder cancer cells were incubated with 0.8, 8.0 and 80 μg/ml of 5.0–7.5×10^5 Da HA (Table 2).
(§4) Unless stated otherwise 2.0×10^4 cells/ml were seeded in 24-well plates and were maintained for 48 h at 37° C. in a 5% CO2 atmosphere. MTT was used at 50 μl per well.
(§5) T-24 human bladder cancer cells, PC-3 and Du-145 human prostate cancer cells, and MCF-7 human breast cancer cell were incubated with saline or with 80.0 μg/ml of 5.0–7.5×10^5 Da HA+1.0 μg/ml of M-DNA (Table 4).
MCF-7 human breast cancer cells (2.5×10^5 cells/ml) were incubated as in Example 6 with 0.0, 0.01 and 0.1 μg/ml of 5.0–7.5×10^5 Da HA+100 μg/ml of the synthetic 6 base oligonucleotide GG(GT)1GG (SEQ ID NO:1) or +100 μg/ml of the […] 27 base oligonucleotide (GT)13G (SEQ ID NO:2) (Table 6). MTT was used at 50 μl per well.
(§6) RT-4 human bladder cancer cells and MCF-7 human breast cancer cells were incubated as in Example 6 with 0.0, 0.008 or 0.08 μg/ml of 5.0–7.5×10^5 Da HA+0.1 μg/ml of CIS, +1.0 μg/ml of 5-FU or +10 μg/ml of 5-FU (Table 7).
(§7) CD44 expression and the inhibition of proliferation by 5.0–7.5×10^5 Da HA were measured using Jurkat T cell leukemia cells; MCF-7 human breast cancer cells; RT-4, T-24, HT-1376 and UMUC-3 human bladder cancer cells; and, PC-3, Du-145 and LNCaP prostate cancer cells (Table 8)

The test system of data set [2] is Du-145 human prostate cancer cells. Kind of data set: MTT cell proliferation, Du-145. The data set is classed as cell-based. The conditions noted are these: 48 h. The method, then: as §1, §2, §3
(§8) PC-3. LNCaP and Du-145 human prostate cancer cells were incubated with 8.0 μg/ml of 5.0–7.5×10^5 Da HA or of <1.5×10^4 Da HA (Table 3).
as §4, §5, §7

The test system of data set [3] is T-24 human bladder cancer cells. In words: MTT cell proliferation, T-24. The data set is classed as cell-based. The conditions noted are these: 48 h. The method, then:
as §1, §2, §3, §4, §5
(§9) HT-1376, RT-4 and T-24 human bladder cancer cells were incubated with 0.8 μg/ml of 5.0–7.5×10^5 Da HA+1.0 μg/ml of MCC (Table 5).
as §7

The test system of data set [4] is LNCaP human prostate cancer cells. In words: MTT cell proliferation, LNCaP. The conditions noted are these: 1.0×10^5 cells/ml, 48 h. The data set is classed as cell-based. Here is the method:
as §1, §2, §3, §8, §7

Data set [5] relates to UMUC-3 human bladder cancer cells. Kind of data set: MTT cell proliferation, UMUC-3. The data set is classed as cell-based. The settings on record: 1.0×10^5 cells/ml, 48 h. The method, then: as §1, §2, §3, §7
For data set [6], the system named is B16F1 murine melanoma cells. Kind of data set: MTT cell proliferation, B16F1. The data set is classed as cell-based. The conditions noted are these: 1.0×10^5 cells/ml, 48 h. Here is the method: as §1, §2, §3
Data set [7] concerns Jurkat T cell leukemia cells. Kind of data set: MTT cell proliferation, Jurkat T. The data set is classed as cell-based. The conditions noted are these: HA 80 μg/ml alone. Here is the method: as §1, §7
Data set [8] relates to RT-4 human bladder cancer cells. Kind of data set: MTT cell proliferation, RT-4. The data set is classed as cell-based. Here is the method:
as §1, §2, §3, §4, §9, §6, §7

Data set [9] concerns HT-1080 human fibrosarcoma cancer cells. In words: MTT cell proliferation, HT-1080. The data set is classed as cell-based. The settings on record: 1.0×10^5 cells/ml, 48 h. Here is the method:
as §1, §2, §3

Data set [10] concerns IL-12. Kind of data set: IL-12 production by PBMCs (ELISA). The data set is classed as cell-based, human. Here is the method: (§10) Peripheral blood mononuclear cells (hereinafter, “PBMCs”) were isolated from the blood of 5 healthy humans by Ficoll-Hypaque (Amersham Pharmacia Biotech, Baie d'Urfée, Québec, Canada) density gradient centrifugation of whole blood. Stimulation of IL-6 and IL-12 production by the immune system cells was determined using the appropriate commercial ELISA (BioSource, Camarillo, Calif., USA). Results are expressed as the “fold” (x) increases in cytokine production by treated cells compared to control cells. PBMCs were incubated with 1 mg/ml of 5.0–7.5×10^5 Da and production of IL-6 and IL-12 was determined (Table 9). PBMCs, isolated from the blood of individual #1, were incubated with 0.008, 0.04, 0.2 and 1 mg/ml of 5.0–7.5×10^5 Da (Table 10)

Data set [11] relates to IL-6. In words: IL-6 production by PBMCs (ELISA). The data set is classed as cell-based, human. Here is the method:
as §10

The test system of data set [12] is PC-3 human prostate cancer cells. Kind of data set: MTT cell proliferation, PC-3. The data set is classed as cell-based. The conditions noted are these: 48 h. Here is the method:
as §1, §2, §3, §8, §4, §5, §7

The test system of data set [13] is HT-1376 human bladder cancer cells. In words: MTT cell proliferation, HT-1376. The data set is classed as cell-based. The conditions noted are these: 48 h. The method, then: as §1, §2, §3, §4, §9, §7
For data set [14], the system named is colon-26 cancer cells. The conditions noted are these: HA alone; colon-26 cells express high levels of HA receptors (Freemantle et al. 1995); cited from earlier work.
Data set [15] has as its system B16F10 murine melanoma tumor. The conditions noted are these: HA 1 mg/ml over 7 days by Alzet osmotic pump into the immediate vicinity of the tumor; cited from earlier work.
Data set [16] concerns rectal, gastric, breast, prostate and endometrial cancers. The conditions noted are these: HA >750 mg/kg administered with various other therapeutic agents over various periods of time (PCT/CA/00283); cited from earlier work.
The mark [17] stands for this setting: MCF-7 2.5×10^5 cells/ml, oligonucleotide 100 μg/ml alone (HA 0.0 μg/ml).
The mark [18] stands for this setting: HA 0.8 μg/ml alone, 1.0×10^5 cells/ml.
Setting [19] is: HA 8.0 μg/ml alone, 1.0×10^5 cells/ml, listed as 0.5–7.5 × 10^5 Da HA.
Setting [20] is: HA 80.0 μg/ml alone (+ saline), 2.0×10^4 cells/ml, 24-well.
Where [21] appears, read: HA 80.0 μg/ml alone, 1.0×10^5 cells/ml.
Where [22] appears, read: HA 8.0 μg/ml alone, 1.0×10^5 cells/ml.
Where [23] appears, read: HA at 0.8 μg/ml alone (+ saline), 2.0×10^4 cells/ml, 24-well.
Where [24] appears, read: PBMCs of individual 1, HA 1 mg/ml.
Setting [25] is: PBMCs of individual 2, HA 1 mg/ml.
The mark [26] stands for this setting: PBMCs of individual 3, HA 1 mg/ml.
Where [27] appears, read: PBMCs of individual 4, HA 1 mg/ml.
Where [28] appears, read: PBMCs of individual 5, HA 1 mg/ml.
The mark [29] stands for this setting: PBMCs of individual #1, HA 0.008 mg/ml.
Setting [30] is: PBMCs of individual #1, HA 0.040 mg/ml.
Setting [31] is: PBMCs of individual #1, HA 0.200 mg/ml.

Some results are limits rather than exact numbers.

GG(GT)1GG: the “% inhibition of cell proliferation” value in [1] (setting [17]) is listed as 20%.

For the substance “(GT)13G (DNA GTGTGTGTGTGTGTGTGTGTGTGTGTG; listed as DNA, chemistry not given here) [(G1T)13G, synthetic 27 base oligonucleotide]”, the “% inhibition of cell proliferation” value in data set [1] (setting [17]) is 44%.

Turning to Hyaluronic acid [5.0–7.5 × 10^5 Da HA], the “% inhibition of cell proliferation” value stood at 6% in data set [2] (setting [18]); 15% in [2] (setting [19]); 38% in data set [2] (setting [20]); 38% in data set [2] (setting [21]); 10% in [3] (setting [18]); 8% in data set [3] (setting [22]). Besides, the “% inhibition of cell proliferation” value in data set [3] (setting [20]) came out at 0%; in data set [3] (setting [21]), 0%; in [3] (setting [23]), 8%; in data set [4] (HA 0.8 μg/ml alone), 7%; in data set [4] (HA 8.0 μg/ml alone, listed as 0.5–7.5 × 10^5 Da HA) it was 13%; in data set [5] (HA 0.8 μg/ml alone), 10%. The “% inhibition of cell proliferation” value in data set [5] (HA 8.0 μg/ml alone) was 10%; in [5] (HA 80.0 μg/ml alone), 2%; in data set [6] (HA 0.8 μg/ml alone) it was 20%; in [6] (HA 8.0 μg/ml alone), 20%; in data set [6] (HA 80.0 μg/ml alone), 30%; in data set [8] (HA 0.008 μg/ml alone (+ saline), as in Example 6) it was 0%. The “% inhibition of cell proliferation” value was 0% in data set [8] (HA 0.08 μg/ml alone (+ saline), as in Example 6); 12% in [8] (HA 0.8 μg/ml alone, 1.0×10^5 cells/ml, 48 h); 13% in data set [8] (HA 8.0 μg/ml alone, 1.0×10^5 cells/ml, 48 h); 5% in data set [8] (HA 80.0 μg/ml alone, 1.0×10^5 cells/ml, 48 h); 13% in [8] (HA at 0.8 μg/ml alone (+ saline), 2.0×10^4 cells/ml, 24-well, 48 h); 6% in data set [1] (MCF-7 2.5×10^5 cells/ml, HA 0.01 μg/ml alone, no oligonucleotide). Moreover, the “% inhibition of cell proliferation” value in data set [1] (MCF-7 2.5×10^5 cells/ml, HA 0.1 μg/ml alone, no oligonucleotide) turned out to be 5%; in data set [1] (MCF-7, HA 0.008 μg/ml alone (+ saline), as in Example 6) it was 12%; in data set [1] (MCF-7, HA 0.08 μg/ml alone (+ saline), as in Example 6), 12%; in [1] (MCF-7, HA 0.8 μg/ml alone, 1.0×10^5 cells/ml, 48 h), 19%; in data set [1] (MCF-7, HA 8.0 μg/ml alone, 1.0×10^5 cells/ml, 48 h) it was 24%; in [1] (MCF-7, HA 80.0 μg/ml alone (+ saline), 2.0×10^4 cells/ml, 24-well, 48 h), 35%. Also, the “% inhibition of cell proliferation” value in data set [1] (MCF-7, HA 80.0 μg/ml alone, 1.0×10^5 cells/ml, 48 h) came out at 35%; in [9] (HA 0.8 μg/ml alone), 4%; in data set [9] (HA 8.0 μg/ml alone) it was 4%; in data set [9] (HA 80.0 μg/ml alone), 36%; in data set [12] (setting [18]), 15%; in data set [12] (setting [19]), 26%. Further, the “% inhibition of cell proliferation” value was 30% in data set [12] (setting [20]); 0% in data set [13] (setting [18]); 3% in data set [13] (setting [22]); 1% in [13] (setting [21]); 3% in [13] (setting [23]). For the same substance, in [7], the “% inhibition of proliferation” value was determined as 0%. In addition, the “IL-12 production, fold increase vs control cells” value was 25.2x in data set [10] (setting [24]); 7.1x in data set [10] (setting [25]); 26.5x in [10] (setting [26]); 10.0x in data set [10] (setting [27]); 8.5x in data set [10] (setting [28]); 4.9x in data set [10] (setting [29]). Moreover, the results for the “IL-12 production, fold increase vs control cells” value in [10] (setting [30]) and in [10] (setting [31]) were 13.8x and 8.5x, respectively. In addition, the “IL-6 production, fold increase vs control cells” value worked out at 3.8x in data set [11] (setting [24]); 1.8x in [11] (setting [25]); 4.1x in [11] (setting [26]); 1.4x in data set [11] (setting [27]); 6.3x in data set [11] (setting [28]); 2.4x in data set [11] (setting [29]). The “IL-6 production, fold increase vs control cells” value came out at 3.5x in data set [11] (setting [30]) and 2.9x in data set [11] (setting [31]).

Consider Hyaluronic acid [<1.5 × 10^4 Da HA], for which the results for the “% inhibition of cell proliferation” value in data set [2] (setting [22]), in data set [4] (HA 8.0 μg/ml alone) and in data set [12] (setting [22]) were 37%, 24% and 5%, respectively.

As to Hyaluronic acid [HA], the “% inhibition of cell proliferation” value came out at 26% in data set [4] (HA 80.0 μg/ml alone) and 30% in data set [12] (setting [21]). Besides, the “growth of cancer cells” value in data set [14] is “significantly inhibits”. The “reduction of tumor volume” value in data set [15] is reported as over 85%. In addition, in [16], the effect on cancers result is listed as “reduced or eliminated”.
